Assay results as given in US10703765B2 (priority 2014, dated 2020).
Structures can show the parent of a compound that is named as a salt. Where two headings read alike, the source gives them in different places.

Target: human σ1 receptor (Homo sapiens, UniProt Q99720)
Experiment: biochemical
Assay type: binding
Set-up: μ and σ1 dual binding: key to the marks not given beside the values
[1] = read-out: μ and σ1 dual binding

human σ1 receptor, sequence (Q99720 whole entry): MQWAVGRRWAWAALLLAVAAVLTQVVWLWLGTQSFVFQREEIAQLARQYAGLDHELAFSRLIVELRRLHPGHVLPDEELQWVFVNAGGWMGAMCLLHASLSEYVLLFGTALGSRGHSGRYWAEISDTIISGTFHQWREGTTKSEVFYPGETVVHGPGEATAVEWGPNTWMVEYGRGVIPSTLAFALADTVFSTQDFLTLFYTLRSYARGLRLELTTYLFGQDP

SMILES | μ and σ1 dual binding | Ki [1] [nM] | also measured
CC1OC2(CCN(CCc3ccccc3)CC2)CN(CC2CCOCC2)C1=O.Cl (stereo not drawn) [Example 163, 2-methyl-9-phenethyl-4-((tetrahydro-2H-pyran-4-yl)methyl)-1-oxa-4,9-diazaspiro[5.5]undecan-3-one hydrochloride] | ++ | – | –
CC1OC2(CCN(CCc3ccccc3)CC2)CN(Cc2cscn2)C1=O (stereo not drawn) [Example 164, 2-methyl-9-phenethyl-4-(thiazol-4-ylmethyl)-1-oxa-4,9-diazaspiro[5.5]undecan-3-one] | – | < 100 | –
O=C1COC2(CCN(CCc3ccccc3)CC2)CN1Cc1ccncc1 [Example 165, 9-phenethyl-4-(pyridin-4-ylmethyl)-1-oxa-4,9-diazaspiro[5.5]undecan-3-one] | – | – | μ and σ1 dual binding (combined class from Ki-σ1 (human σ1 receptor, A1) and Ki-μ (human μ-opioid receptor, A2) radioligand binding): ++
COc1cccc(CN2CC3(CCN(CCc4ccccc4)CC3)OCC2=O)c1 [Example 166, 4-(3-methoxybenzyl)-9-phenethyl-1-oxa-4,9-diazaspiro[5.5]undecan-3-one hydrochloride] | – | < 500 | –
O=C1COC2(CCN(CCc3ccccc3)CC2)CN1Cc1cscn1 [Example 167, 9-phenethyl-4-(thiazol-4-ylmethyl)-1-oxa-4,9-diazaspiro[5.5]undecan-3-one hydrochloride] | – | < 100 | –
Cl.O=C1COC2(CCN(CCc3ccccc3)CC2)CN1Cc1nccn1Cc1ccccc1 [Example 168, 4-((1-benzyl-1H-imidazol-2-yl)methyl)-9-phenethyl-1-oxa-4,9-diazaspiro[5.5]undecan-3-one hydrochloride] | ++ | – | –
Cl.O=C1COC2(CCN(CCc3ccccc3)CC2)CN1CCc1ccccn1 [Example 169, 9-phenethyl-4-(2-(pyridin-2-yl)ethyl)-1-oxa-4,9-diazaspiro[5.5]undecan-3-one hydrochloride] | ++ | – | –
CC1OC2(CCN(CCc3ccccc3)CC2)CN(CC(=O)N2CCOCC2)C1=O (stereo not drawn) [Example 170, 2-methyl-4-(2-morpholino-2-oxoethyl)-9-phenethyl-1-oxa-4,9-diazaspiro[5.5]undecan-3-one hydrochloride] | – | > 500 | –
CC1OC2(CCN(CCc3ccccc3)CC2)CN(Cc2ccn(C)n2)C1=O (stereo not drawn) [Example 171, 2-methyl-4-((1-methyl-1H-pyrazol-3-yl)methyl)-9-phenethyl-1-oxa-4,9-diazaspiro[5.5]undecan-3-one] | – | – | Ki: < 500 nM
CC1OC2(CCN(CCc3ccccc3)CC2)CN(Cc2nccn2C)C1=O.Cl (stereo not drawn) [Example 172, 2-methyl-4-((1-methyl-1H-imidazol-2-yl)methyl)-9-phenethyl-1-oxa-4,9-diazaspiro[5.5]undecan-3-one hydrochloride] | ++ | – | –
CC1OC2(CCN(CCc3ccccc3)CC2)CN(Cc2ncccc2F)C1=O (stereo not drawn) [Example 173, 4-((3-fluoropyridin-2-yl)methyl)-2-methyl-9-phenethyl-1-oxa-4,9-diazaspiro[5.5]undecan-3-one] | – | < 100 | –
CC1OC2(CCN(CCc3ccccc3)CC2)CN(Cc2cccc(C(F)(F)F)n2)C1=O (stereo not drawn) [Example 174, 2-methyl-9-phenethyl-4-((6-(trifluoromethyl)pyridin-2-yl)methyl)-1-oxa-4,9-diazaspiro[5.5]undecan-3-one hydrochloride] | – | – | Ki: < 100 nM
CC1OC2(CCN(CCc3ccccc3)CC2)CN(CCc2cccnc2)C1=O (stereo not drawn) [Example 175, 2-methyl-9-phenethyl-4-(2-(pyridin-3-yl)ethyl)-1-oxa-4,9-diazaspiro[5.5]undecan-3-one dihydrochloride] | – | – | Ki: < 500 nM
O=C1COC2(CCN(CCc3ccccc3)CC2)CN1Cc1ccc(F)cn1 [Example 176, 4-((5-fluoropyridin-2-yl)methyl)-9-phenethyl-1-oxa-4,9-diazaspiro[5.5]undecan-3-one hydrochloride] | – | < 500 | –
O=C1COC2(CCN(CCc3ccccc3)CC2)CN1Cc1ccc(C(F)(F)F)cn1 [Example 177, 9-phenethyl-4-((5-(trifluoromethyl)pyridin-2-yl)methyl)-1-oxa-4,9-diazaspiro[5.5]undecan-3-one hydrochloride] | – | – | Ki: < 100 nM
Cl.O=C1COC2(CCN(CCc3ccccc3)CC2)CN1CCc1ccncc1 [Example 178, 9-phenethyl-4-(2-(pyridin-4-yl)ethyl)-1-oxa-4,9-diazaspiro[5.5]undecan-3-one hydrochloride] | ++ | – | –
O=C1COC2(CCN(CCc3ccccc3)CC2)CN1Cc1cccc([N+](=O)[O-])c1 [Example 179, 4-(3-nitrobenzyl)-9-phenethyl-1-oxa-4,9-diazaspiro[5.5]undecan-3-one] | – | > 500 | –
COCCCN1CC2(CCN(CCc3ccccc3)CC2)OC2(CC2)C1=O [Example 180, 12-(3-methoxypropyl)-8-phenethyl-4-oxa-8,12-diazadispiro[2.1.5.3]tridecan-13-one hydrochloride] | – | < 500 | –
N#CCCN1CC2(CCN(CCc3ccccc3)CC2)OC2(CC2)C1=O [Example 181, 3-[13-oxo-8-phenethyl-4-oxa-8,12-diazadispiro[2.1.5.3]tridecan-12-yl]propanenitrile hydrochloride] | – | > 500 | –
CN(C)C(=O)CCN1CC2(CCN(CCc3ccccc3)CC2)OC2(CC2)C1=O [Example 182, N,N-dimethyl-3-[13-oxo-8-phenethyl-4-oxa-8,12-diazadispiro[2.1.5.3]tridecan-12-yl]propanamide hydrochloride] | – | > 500 | –

SMILES | μ and σ1 dual binding | Ki [1] [nM] | also measured
CC1OC2(CCN(CCc3ccccc3)CC2)CN(CC(C)(C)O)C1=O (stereo not drawn) [Example 183, 4-(2-hydroxy-2-methylpropyl)-2-methyl-9-phenethyl-1-oxa-4,9-diazaspiro[5.5]undecan-3-one] | – | > 500 | –
COCCN1CC2(CCN(CCc3ccccc3)CC2)OC2(CC2)C1=O.Cl [Example 184, 12-(2-methoxyethyl)-8-phenethyl-4-oxa-8,12-diazadispiro[2.1.5.3]tridecan-13-one hydrochloride] | ++ | – | –
O=C1N(CCOC2CCCCO2)CC2(CCN(CCc3ccccc3)CC2)OC12CC2 (stereo not drawn) [Example 185, 12-(2-((tetrahydro-2H-pyran-2-yl)oxy)ethyl)-8-phenethyl-4-oxa-8,12-diazadispiro[2.1.5.3]tridecan-13-one] | – | > 500 | –
COC(=O)CCN1CC2(CCN(CCc3ccccc3)CC2)OC2(CC2)C1=O [Example 186, methyl 3-(13-oxo-8-phenethyl-4-oxa-8,12-diazadispiro[2.1.5.3]tridecan-12-yl)propanoate] | – | > 500 | –
O=C1N(Cc2ccc(C(F)(F)F)cn2)CC2(CCN(CCc3ccccc3)CC2)OC12CC2 [Example 187, 8-phenethyl-12-{[5-(trifluoromethyl)pyridin-2-yl]methyl}-4-oxa-8,12-diazadispiro[2.1.5.3]tridecan-13-one dihydrochloride] | – | < 100 | –
Cl.O=C1COC2(CCN(Cc3ccccc3)CC2)CN1c1ccc(F)cc1 [Example 188, 9-benzyl-4-(4-fluorophenyl)-1-oxa-4,9-diazaspiro[5.5]undecan-3-one hydrochloride] | ++ | – | –
O=C1COC2(CCN(CCc3ccccc3)CC2)CN1c1ccccc1F [Example 189, 4-(2-fluorophenyl)-9-phenethyl-1-oxa-4,9-diazaspiro[5.5]undecan-3-one] | – | < 500 | –
O=C1COC2(CCN(CCc3ccccc3)CC2)CN1c1ccc(F)cc1 [Example 190, 4-(4-fluorophenyl)-9-phenethyl-1-oxa-4,9-diazaspiro[5.5]undecan-3-one] | – | < 500 | –
O=C1COC2(CCN(CCc3ccccc3)CC2)CN1c1cccc(F)c1 [Example 191, 4-(3-fluorophenyl)-9-phenethyl-1-oxa-4,9-diazaspiro[5.5]undecan-3-one] | – | < 500 | –
CC1OC2(CCN(CCc3ccccc3)CC2)CN(c2ccccc2F)C1=O (stereo not drawn) [Example 192, 4-(2-fluorophenyl)-2-methyl-9-phenethyl-1-oxa-4,9-diazaspiro[5.5]undecan-3-one hydrochloride] | – | < 100 | –
CC1OC2(CCN(CCc3ccccc3)CC2)CN(c2ccccc2Cl)C1=O (stereo not drawn) [Example 193, 4-(2-chlorophenyl)-2-methyl-9-phenethyl-1-oxa-4,9-diazaspiro[5.5]undecan-3-one hydrochloride] | – | < 100 | –
CC1OC2(CCN(CCc3ccccc3)CC2)CN(c2cccnc2)C1=O (stereo not drawn) [Example 194, 2-methyl-9-phenethyl-4-(pyridin-3-yl)-1-oxa-4,9-diazaspiro[5.5]undecan-3-one hydrochloride] | – | < 500 | –
CC1OC2(CCN(CCc3ccccc3)CC2)CN(c2cnccn2)C1=O (stereo not drawn) [Example 195, 2-methyl-9-phenethyl-4-(pyrazin-2-yl)-1-oxa-4,9-diazaspiro[5.5]undecan-3-one hydrochloride] | – | < 500 | –
CC1OC2(CCN(CCc3ccccc3)CC2)CN(c2ccccn2)C1=O.Cl (stereo not drawn) [Example 196, 2-methyl-9-phenethyl-4-(pyridin-2-yl)-1-oxa-4,9-diazaspiro[5.5]undecan-3-one hydrochloride] | ++ | – | –
CCOC(=O)c1cccc(N2CC3(CCN(CCc4ccccc4)CC3)OC(C)C2=O)c1.Cl (stereo not drawn) [Example 197, ethyl 3-(2-methyl-3-oxo-9-phenethyl-1-oxa-4,9-diazaspiro[5.5]undecan-4-yl)benzoate hydrochloride] | ++ | – | –
CC1OC2(CCN(CCc3ccccc3)CC2)CN(c2cccc(C#N)c2)C1=O.Cl (stereo not drawn) [Example 198, 3-(2-methyl-3-oxo-9-phenethyl-1-oxa-4,9-diazaspiro[5.5]undecan-4-yl)benzonitrile hydrochloride] | ++ | – | –
CC1OC2(CCN(CCc3ccccc3)CC2)CN(c2cccc([N+](=O)[O-])c2)C1=O (stereo not drawn) [Example 199, 2-methyl-4-(3-nitrophenyl)-9-phenethyl-1-oxa-4,9-diazaspiro[5.5]undecan-3-one] | – | > 500 | –
CC1OC2(CCN(CCc3ccccc3)CC2)CN(c2nn(C)c3ccccc23)C1=O.Cl (stereo not drawn) [Example 200, 2-methyl-4-(1-methyl-1H-indazol-3-yl)-9-phenethyl-1-oxa-4,9-diazaspiro[5.5]undecan-3-one hydrochloride] | ++ | – | –
CC1OC2(CCN(CCc3ccccc3)CC2)CN(c2ccc3cnn(C)c3c2)C1=O.Cl (stereo not drawn) [Example 201, 2-methyl-4-(1-methyl-1H-indazol-6-yl)-9-phenethyl-1-oxa-4,9-diazaspiro[5.5]undecan-3-one hydrochloride] | ++ | – | –
